# Reference: patent US9695155B2, “Herbicidal substituted pyrimidinyloxy benzene compounds” (E. I. DU PONT DE NEMOURS AND COMPANY, priority 2013, dated 2017)
# Key:
# wild buckwheat = test: Test D postemergence; format: in vivo, Polygonum convolvulus; details: Fallopia convolvulus, post-emergence, Postemergence, scale 0 to 100 (0 no effect, 100 complete control), read-out: Plant response rating, Buckwheat, Wild
# Text: (§1) Seeds of plant species selected from bluegrass (annual bluegrass, Poa annua), blackgrass (Alopecurus myosuroides), canarygrass (littleseed canarygrass, Phalaris minor), chickweed (common chickweed, Stellaria media), galium (catchweed bedstraw, Galium aparine), bromegrass, downy (downy bromegrass, Bromus tectorum), field poppy (Papaver rhoeas), field violet (Viola arvensis), green foxtail (Setaria viridis), deadnettle (henbit deadnettle, Lamium amplexicaule), Italian ryegrass (Lolium multiflorum), kochia (Kochia scoparia), lambsquarters (Chenopodium album), oilseed rape (Brassica napus), pigweed (Amaranthus retroflexus), chamomile (scentless chamomile, Matricaria inodora), Russian thistle (Salsola kali), speedwell (bird's-eye speedwell, Veronica persica), spring barley (Hordeum vulgare), spring wheat (Triticum aestivum), wild buckwheat (Polygonum convolvulus), wild mustard (Sinapis arvensis), wild oat (Avena fatua), wild radish (Raphanus raphanistrum), windgrass (Apera spica-venti), winter barley (Hordeum vulgare), and winter wheat (Triticum aestivum) were planted into a silt loam soil and treated preemergence with test chemicals formulated in a non-phytotoxic solvent mixture which included a surfactant.
# (§2) At the same time, these species were planted in pots containing Redi-Earth® planting medium (Scotts Company, 14111 Scottslawn Road, Marysville, Ohio 43041) comprising spaghnum peat moss, vermiculite, wetting agent and starter nutrients and treated with postemergence applications of the test chemicals formulated in the same manner. Plants ranged in height from 2 to 18 cm (1- to 4-leaf stage). Treated plants and controls were maintained in a controlled growth environment for 7 to 21 days after which time all species were compared to controls and visually evaluated. Plant response ratings, summarized in Table D, are based on a scale of 0 to 100 where 0 is no effect and 100 is complete control. A dash (-) response means no test result.
# chamomile = test: Test D postemergence; format: in vivo, Matricaria inodora; details: Tripleurospermum inodorum, post-emergence
# Text: as §1, §2
# oilseed rape = test: Test D postemergence; format: in vivo, Brassica napus; details: Brassica napus, post-emergence
# Summary of the method: (§3)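 Visual rating vs untreated controls, 0 = no effect, 100 = complete control, taken 7–21 d after treatment. Pre: silt loam soil. Post: potting medium, plants 2–18 cm, 1–4 leaf. Formulation: non-phytotoxic solvent mix + surfactant.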
# Italian ryegrass [1] = test: Test D preemergence; format: in vivo, Lolium multiflorum; details: Lolium multiflorum, pre-emergence
# Summary of the method: as §3
# bluegrass = test: Test D preemergence; format: in vivo, Poa annua; details: Poa annua, pre-emergence
# Summary of the method: as §3
# canarygrass = test: Test D postemergence; format: in vivo, Phalaris minor; details: Phalaris minor, post-emergence
# Summary of the method: as §3
# kochia = test: Test D preemergence; format: in vivo, Kochia scoparia; details: Bassia scoparia, pre-emergence
# Summary of the method: as §3
# galium = test: Test D postemergence; format: in vivo, Galium aparine; details: Galium, post-emergence
# Summary of the method: as §3
# deadnettle = test: Test D postemergence; format: in vivo, Lamium amplexicaule; details: Lamium amplexicaule, post-emergence
# Text: as §1, §2
# Italian ryegrass [2] = test: Test D postemergence; format: in vivo, Lolium multiflorum; details: Lolium multiflorum, post-emergence
# Text: as §1, §2
# blackgrass = test: Test D preemergence; format: in vivo, Alopecurus myosuroides; details: Alopecurus myosuroides, pre-emergence
# Summary of the method: as §3
# field violet = test: Test D preemergence; format: in vivo, Viola arvensis; details: Viola arvensis, pre-emergence
# Summary of the method: as §3
compound,measurement,setting,value
"Fc1cccc(Oc2ncc(Cl)cn2)c1-n1cc(Br)cn1 [Compound 178, 2-[2-(4-bromo-1H-pyrazol-1-yl)-3-fluorophenoxy]-5-chloropyrimidine]",pest or weed control at 16 g/ha,wild buckwheat; 16 g ai/ha,65%
same,pest or weed control at 31 g/ha,wild buckwheat; 31 g ai/ha,75%
same,pest or weed control at 62 g/ha,wild buckwheat; 62 g ai/ha,75%
same,pest or weed control at 125 g/ha,wild buckwheat; 125 g ai/ha,85%
same,pest or weed control at 16 g/ha,"chamomile; 16 g ai/ha, scale 0-100, read-out: Plant response rating, Chamomile",0%
same,pest or weed control at 31 g/ha,"chamomile; 31 g ai/ha, scale 0 to 100 (0 no effect, 100 complete control), read-out: Plant response rating, Chamomile",0%
same,pest or weed control at 62 g/ha,"chamomile; 62 g ai/ha, scale 0 to 100 (0 no effect, 100 complete control), read-out: Plant response rating, Chamomile",5%
same,pest or weed control at 125 g/ha,"chamomile; 125 g ai/ha, scale 0 to 100 (0 no effect, 100 complete control), read-out: Plant response rating, Chamomile",5%
same,plant injury at 16 g/ha,"oilseed rape; 16 g ai/ha, scale 0-100, read-out: Plant response rating, Oilseed Rape",60%
same,plant injury at 31 g/ha,"oilseed rape; 31 g ai/ha, scale 0 to 100 (0 no effect, 100 complete control), read-out: Plant response rating, Oilseed Rape",65%
same,plant injury at 62 g/ha,"oilseed rape; 62 g ai/ha, scale 0 to 100 (0 no effect, 100 complete control), read-out: Plant response rating, Oilseed Rape",80%
same,plant injury at 125 g/ha,"oilseed rape; 125 g ai/ha, scale 0 to 100 (0 no effect, 100 complete control), read-out: Plant response rating, Oilseed Rape",90%
same,pest or weed control at 16 g/ha,"Italian ryegrass [1]; 16 g ai/ha, scale 0 (no effect) to 100 (complete control), read-out: Plant response rating, Ryegrass, Italian",0%
same,pest or weed control at 31 g/ha,"Italian ryegrass [1]; 31 g ai/ha, scale 0 (no effect) to 100 (complete control), read-out: Plant response rating, Ryegrass, Italian",0%
same,pest or weed control at 62 g/ha,"Italian ryegrass [1]; 62 g ai/ha, scale 0-100, read-out: Plant response rating, Ryegrass, Italian",15%
same,pest or weed control at 125 g/ha,"Italian ryegrass [1]; 125 g ai/ha, scale 0-100, read-out: Plant response rating, Ryegrass, Italian",20%
same,pest or weed control at 16 g/ha,"bluegrass; 16 g ai/ha, scale 0 (no effect) to 100 (complete control), read-out: Plant response rating, Bluegrass",0%
same,pest or weed control at 31 g/ha,"bluegrass; 31 g ai/ha, scale 0-100, read-out: Plant response rating, Bluegrass",10%
same,pest or weed control at 62 g/ha,"bluegrass; 62 g ai/ha, scale 0-100, read-out: Plant response rating, Bluegrass",20%
same,pest or weed control at 125 g/ha,"bluegrass; 125 g ai/ha, scale 0-100, read-out: Plant response rating, Bluegrass",70%
same,pest or weed control at 16 g/ha,"canarygrass; 16 g ai/ha, scale 0-100, read-out: Plant response rating, Canarygrass",5%
same,pest or weed control at 31 g/ha,"canarygrass; 31 g ai/ha, scale 0 to 100 (0 no effect, 100 complete control), read-out: Plant response rating, Canarygrass",15%
same,pest or weed control at 62 g/ha,"canarygrass; 62 g ai/ha, scale 0 to 100 (0 no effect, 100 complete control), read-out: Plant response rating, Canarygrass",20%
same,pest or weed control at 125 g/ha,"canarygrass; 125 g ai/ha, scale 0 to 100 (0 no effect, 100 complete control), read-out: Plant response rating, Canarygrass",35%
same,pest or weed control at 16 g/ha,"kochia; 16 g ai/ha, scale 0 (no effect) to 100 (complete control), read-out: Plant response rating, Kochia",0%
same,pest or weed control at 31 g/ha,"kochia; 31 g ai/ha, scale 0-100, read-out: Plant response rating, Kochia",35%
same,pest or weed control at 62 g/ha,"kochia; 62 g ai/ha, scale 0-100, read-out: Plant response rating, Kochia",85%
same,pest or weed control at 125 g/ha,"kochia; 125 g ai/ha, scale 0-100, read-out: Plant response rating, Kochia",100%
same,pest or weed control at 16 g/ha,"galium; 16 g ai/ha, scale 0-100, read-out: Plant response rating, Galium",75%
same,pest or weed control at 31 g/ha,"galium; 31 g ai/ha, scale 0 to 100 (0 no effect, 100 complete control), read-out: Plant response rating, Galium",75%
same,pest or weed control at 62 g/ha,"galium; 62 g ai/ha, scale 0 to 100 (0 no effect, 100 complete control), read-out: Plant response rating, Galium",75%
same,pest or weed control at 125 g/ha,"galium; 125 g ai/ha, scale 0 to 100 (0 no effect, 100 complete control), read-out: Plant response rating, Galium",80%
same,pest or weed control at 16 g/ha,"deadnettle; 16 g ai/ha, scale 0-100, read-out: Plant response rating, Deadnettle",40%
same,pest or weed control at 31 g/ha,"deadnettle; 31 g ai/ha, scale 0 to 100 (0 no effect, 100 complete control), read-out: Plant response rating, Deadnettle",45%
same,pest or weed control at 62 g/ha,"deadnettle; 62 g ai/ha, scale 0 to 100 (0 no effect, 100 complete control), read-out: Plant response rating, Deadnettle",50%
same,pest or weed control at 125 g/ha,"deadnettle; 125 g ai/ha, scale 0 to 100 (0 no effect, 100 complete control), read-out: Plant response rating, Deadnettle",65%
same,pest or weed control at 16 g/ha,"Italian ryegrass [2]; 16 g ai/ha, scale 0-100, read-out: Plant response rating, Ryegrass, Italian",0%
same,pest or weed control at 31 g/ha,"Italian ryegrass [2]; 31 g ai/ha, scale 0 to 100 (0 no effect, 100 complete control), read-out: Plant response rating, Ryegrass, Italian",0%
same,pest or weed control at 62 g/ha,"Italian ryegrass [2]; 62 g ai/ha, scale 0 to 100 (0 no effect, 100 complete control), read-out: Plant response rating, Ryegrass, Italian",5%
same,pest or weed control at 125 g/ha,"Italian ryegrass [2]; 125 g ai/ha, scale 0 to 100 (0 no effect, 100 complete control), read-out: Plant response rating, Ryegrass, Italian",15%
same,pest or weed control at 16 g/ha,"blackgrass; 16 g ai/ha, scale 0 (no effect) to 100 (complete control), read-out: Plant response rating, Blackgrass",5%
same,pest or weed control at 31 g/ha,"blackgrass; 31 g ai/ha, scale 0-100, read-out: Plant response rating, Blackgrass",10%
same,pest or weed control at 62 g/ha,"blackgrass; 62 g ai/ha, scale 0-100, read-out: Plant response rating, Blackgrass",35%
same,pest or weed control at 125 g/ha,"blackgrass; 125 g ai/ha, scale 0-100, read-out: Plant response rating, Blackgrass",85%
same,pest or weed control at 16 g/ha,"field violet; 16 g ai/ha, scale 0 (no effect) to 100 (complete control), read-out: Plant response rating, Field Violet",20%
same,pest or weed control at 62 g/ha,"field violet; 62 g ai/ha, scale 0-100, read-out: Plant response rating, Field Violet",90%
same,pest or weed control at 125 g/ha,"field violet; 125 g ai/ha, scale 0-100, read-out: Plant response rating, Field Violet",100%
